In this experiment the target is γ-secretase (Cricetulus griseus, UniProt G3HNF2). Put plainly: Cell-Based γ-Secretase Assay with ELISA Readout (production of amyloid beta protein Aβ(1-42)). The following applies: human WT-APP overexpressing CHO cells, ~24 h incubation, Aβ(1-42) ELISA.
The mark [1] stands for this setting: read-out: Aβ 42B IC50 (nM) (Geometric Mean of 2-5 Determinations), Table 5, geometric mean of 2-5 determinations.

Four compounds from US20160229847A1, “NOVEL BICYCLIC PYRIDINONES AS GAMMA-SECRETASE MODULATORS” (PFIZER INC., priority 2013, published 2016) can be followed below.

As a reminder, the IC50 is the midpoint of a concentration-inhibition curve.

Structures can show the parent of a compound that is named as a salt. Where two headings read alike, the source gives them in different places.

Description: The ability of compounds to modulate production of amyloid beta protein Aβ(1-42) was determined using human WT-APP overexpressing CHO cells. Cells were plated at 22,000 cells/100 μL well in 96 well tissue culture treated, clear plates (Falcon) in DMEM/F12 based medium and incubated for 24 h at 37° C. […] Compounds were added in fresh medium to achieve 1% final DMSO. Appropriate vehicle or inhibitor controls were added into control wells individually to obtain minimum or maximum inhibition values, respectively, for the assay signal window before the plates were incubated for ˜24 h at 37° C. This procedure produces conditioned media in each well which is tested for Aβ(1-42) levels in the ELISA detection step described next. The remaining cell cultures in each well are also tested for cell toxicity as described below.
Coating of ELISA assay plates was initiated by addition of 50 μL/well of an in-house Aβ(1-42) specific antibody at (3 μg/mL) in 0.1 M NaHCO3 (pH 9.0) into black 384-well Maxisorp® plates (Nunc) and incubated overnight at 4° C. The capture antibody was then aspirated from the ELISA assay plates and plates were washed either 2×100 uL with a Matrical Squirt plate washer, or 3×90 uL with a Thermo Combi, using Wash Buffer (Dulbecco's PBS, 0.05% Tween 20). 90 μL/well of Blocking Buffer (Dulbecco's PBS, 1.0% BSA (Sigma A7030) was then added to plates. Ambient temperature incubation was allowed to proceed for a minimum of 2 h. Blocking buffer was then removed and 20 μL/well Assay Buffer (Dulbecco's PBS, 1.0% BSA (Sigma A7030), 0.05% Tween 20) was then added. At this point, 35 uL (40 uL prior to August, 2012) (in duplicate) of experimental conditioned media (described above) were transferred into wells of the blocked ELISA plates containing the capture antibody, followed by overnight incubation at 4° C. Cell toxicity was also measured in the corresponding remaining cells after removal of the conditioned media for the Aβ(1-42) assay by a colorimetric cell proliferation assay (CellTiter 96® AQueous One Solution Cell Proliferation Assay, Promega) according to the manufacturer's instructions.
After overnight incubation of the ELISA assay plates at 4° C., unbound Aβ peptides were removed via either 2×100 uL washes with a Matrical Squirt plate washer, or 3×90 uL washes with a Thermo Combi, using Wash Buffer. Europium (Eu) labeled (custom labeled, PerkinElmer) Aβ(1-16) 6e10 Monoclonal Antibody (Covance #SIG-39320) was added, (50 μL/well Eu-6e10 @ 1:10,000, 20 uM EDTA) in Assay Buffer. […] Following 30 to 60 min ambient temperature incubation, the plates were read on an EnVision plate reader (PerkinElmer) using standard DELFIA TRF settings. […]

With “2-[(4′-fluorobiphenyl-3-yl)methyl]- 7-(4-methyl-1H-imidazol-1-yl)- 3,4-dihydro-2H-pyrido[1,2- a]pyrazine-1,6-dione, formate salt [Example 12]”, the IC50 (Table 5, footnote 1: single determination, read-out: Aβ 42B IC50 (nM), IC50 value is from a single determination) came out at 83.4 nM.

With “2-[(7-chloro-6,8-dimethoxyquinolin-2- yl)methyl]-7-(4-methyl-1H-imidazol- 1-yl)-3,4-dihydro-2H-pyrido[1,2- a]pyrazine-1,6-dione [Example 87]”, the IC50 under setting [1] was 150 nM.

As to `Cc1cn(-c2ccc3n(c2=O)CCN(CC2(c4ccc(Cl)cc4)CC2)C3=O)cn1` [Example 17, 2-{[1-(4-chlorophenyl)cyclopropyl]methyl}-7-(4-methyl-1H-imidazol-1-yl)-3,4-dihydro-2H-pyrido[1,2-a]pyrazine-1,6-dione, trifluoroacetate salt], under setting [1], the 50% inhibitory concentration (IC50) came to 410 nM.

Regarding `Cc1cn(-c2ccc3n(c2=O)CCN(Cc2nc(C4(c5ccc(Cl)cc5)CCC4)no2)C3=O)cn1` [Example 18, 2-({3-[1-(4-chlorophenyl)cyclobutyl]-1,2,4-oxadiazol-5-yl}methyl)-7-(4-methyl-1H-imidazol-1-yl)-3,4-dihydro-2H-pyrido[1,2-a]pyrazine-1,6-dione, trifluoroacetate salt], the IC50 under setting [1] was found to be 169 nM.
